# Earlier results in US20110184024A1, “Pharmaceutical Composition Containing Esomeprazole” (CTC BIO, INC., priority 2007, published 2011).
# Conditions: stored for two months at 25° C./60% RH
smiles,measurement,value
"COc1ccc2nc([S@@+]([O-])Cc3ncc(C)c(OC)c3C)[nH]c2c1 [esomeprazole free base, (S)-5-methoxy-2-[(4-methoxy-3,5-dimethylpyridin-2-yl)methylsulfinyl]-3H-benzoimidazole]",total impurities after storage,about 1%
